We go through 8 molecules from patent EP0560267B1, “Isosteric antiherpes peptide derivatives” (BOEHRINGER INGELHEIM (CANADA) LTD., priority 1992, dated 1993).

Experiment [1] addresses T1, HSV-1 ribonucleotide reductase (Human herpesvirus 1, UniProt P08543).
T1 construct: HSV-1 ribonucleotide reductase (partially purified) was obtained from quiescent BHK-21/C13 cells infected with strain F HSV-1 virus; made in house; host or cells: quiescent BHK-21/C13 cells infected with HSV-1 strain F (virus-encoded enzyme, partially purified)
In words: Inhibition of Herpes Simplex Virus (HSV-1) ribonucleotide reductase. It is filed as biochemical. The method, boiled down:
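Partially purified enzyme from quiescent BHK-21/C13 cells infected with HSV-1 strain F at 10 PFU/cell, used at constant units per assay. IC50 taken as concentration giving 50% of maximal inhibition versus no-compound control; mean of four assays.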

Another experiment deals with HSV-2. In words: Inhibition of Herpes Simplex Virus (HSV-2) replication in cell culture. Type of experiment: cell-based. In outline: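 Serum-starved BHK-21/C13 cells infected with HSV-2 strain HG-52 (MOI 0.02 PFU/cell), then exposed to compound in BBMT medium for 29 h at 37°. Progeny virus titrated on fresh BHK-21/C13 cells by neutral red viability read at 540; EC50 as concentration halving virus replication.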

[2] abbreviates: Human alphaherpesvirus 2, Table IV, cell culture assay of example 11, read-out: EC50.

Where two headings read alike, the source gives them in different places.

Usually IC50 stands for the concentration that inhibits the measured activity by half. A higher IC50 goes with lower potency. As a reminder, the EC50 is the concentration that produces a half-maximal response.

T1 sequence (P08543 whole entry): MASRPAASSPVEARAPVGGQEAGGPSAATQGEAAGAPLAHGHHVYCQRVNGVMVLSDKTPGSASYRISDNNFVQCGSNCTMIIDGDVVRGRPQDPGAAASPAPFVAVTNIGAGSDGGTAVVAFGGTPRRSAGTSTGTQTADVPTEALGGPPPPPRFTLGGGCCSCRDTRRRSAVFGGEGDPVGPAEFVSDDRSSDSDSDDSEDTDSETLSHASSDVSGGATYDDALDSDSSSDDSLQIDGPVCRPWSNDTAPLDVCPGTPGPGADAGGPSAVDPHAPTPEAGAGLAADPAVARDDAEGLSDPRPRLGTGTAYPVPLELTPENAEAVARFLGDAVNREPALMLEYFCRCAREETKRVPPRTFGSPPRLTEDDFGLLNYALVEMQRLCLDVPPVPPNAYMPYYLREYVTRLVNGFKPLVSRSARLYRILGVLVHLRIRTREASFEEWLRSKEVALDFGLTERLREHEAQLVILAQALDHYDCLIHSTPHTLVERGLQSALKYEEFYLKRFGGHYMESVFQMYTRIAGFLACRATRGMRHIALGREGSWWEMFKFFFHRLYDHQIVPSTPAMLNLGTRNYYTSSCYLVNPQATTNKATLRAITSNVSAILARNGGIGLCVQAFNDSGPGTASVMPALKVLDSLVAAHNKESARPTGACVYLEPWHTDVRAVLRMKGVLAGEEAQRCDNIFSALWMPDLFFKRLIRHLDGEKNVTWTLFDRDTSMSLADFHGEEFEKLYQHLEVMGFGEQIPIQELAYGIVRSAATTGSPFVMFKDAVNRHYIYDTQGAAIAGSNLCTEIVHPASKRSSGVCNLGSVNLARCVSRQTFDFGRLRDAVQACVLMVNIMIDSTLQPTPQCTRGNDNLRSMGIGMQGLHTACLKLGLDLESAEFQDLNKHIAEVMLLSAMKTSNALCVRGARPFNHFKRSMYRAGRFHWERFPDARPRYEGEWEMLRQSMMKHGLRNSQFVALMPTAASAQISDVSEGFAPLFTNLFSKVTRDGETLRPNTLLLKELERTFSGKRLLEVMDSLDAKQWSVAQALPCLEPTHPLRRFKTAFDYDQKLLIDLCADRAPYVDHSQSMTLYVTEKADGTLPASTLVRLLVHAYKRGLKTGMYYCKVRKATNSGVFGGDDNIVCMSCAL

For `CCCC(CCC)NC(=O)NC(C(=O)CC(CC(=O)C(C)(C)C)C(=O)NC(C(=O)NC1CCCC1(C)C)C1(C(=O)O)CCCC1)C(C)(C)C` [Pr2CHNHC(O)-Tbg-CH2-(R)-CH(CH2C(O)CMe3)C(O)-Asp(cyPn)-NH-(2,2-dimethyl-cyclopentyl)], the IC50 in experiment [1] (Table IV, assay of example 10) was determined as 0.38 µM. In the experiment with HSV-2 (setting [2]), the EC50 came out at 31 µM.
Take `CCCC(CCC)NC(=O)NC(C(=O)CC(CC(=O)C(C)(C)C)C(=O)NC(C(=O)NCC1CCCCC1)C1(C(=O)O)CCCC1)C(C)(C)C` [Pr2CHNHC(O) / NHCH2-(cyclohexyl), Pr2CHNHC(O)-Tbg-CH2-(R)-CH(CH2C(O)CMe3)C(O)-Asp(cyPn)-NHCH2-(cyclohexyl)]: the IC50 in experiment [1] (Table IV, assay of example 10) came to 0.36 µM. The EC50 in the experiment on HSV-2 (setting [2]) came out at 47 µM.
In experiment [1] (Table I, partially purified enzyme from BHK-21/C13 cells infected with strain F HSV-1, mean of four assays), `CCC(CC)NC(=O)NC(C(=O)CC(CC(=O)C1CCCC1)C(=O)NC(C(=O)NCC(C)(C)C)C1(C(=O)O)CCCC1)C(C)(C)C` [Et2CHNHC(O)-Tbg-CH2-(R)-CH{CH2C(O)-(cyclopentyl)}C(O)-Asp(cyPn)-NHCH2CMe3] showed an IC50 of 0.22 µM. Also, it took 50 µM to reach a half-maximal effect with HSV-2 (Human alphaherpesvirus 2, BHK21 (C13), 29 h) (EC50).
For the molecule `C=CCC(CC=C)NC(=O)NC(C(=O)CC(CC(=O)C(C)(C)C)C(=O)NC(C(=O)NC(C)C(C)(C)C)C1(C(=O)O)CCCC1)C(C)(C)C` [(CH2=CHCH2)2-CHNHC(O)-Tbg-CH2-(R)-CH(CH2C(O)CMe3)C(O)-Asp(cyPn)-NH-(R)-CH(Me)CMe3], it took 0.32 µM to reach half-maximal inhibition in experiment [1] (Table IV, assay of example 10) (IC50). Besides, in the experiment on HSV-2 (setting [2]), the EC50 was 48 µM.
`CCCC(CCC)NC(=O)NC(C(=O)CC(CC(=O)C(C)(C)C)C(=O)NC(C(=O)NC1CCCCC1C)C1(C(=O)O)CCCC1)C(C)(C)C` [Pr2CHNHC(O)-Tbg-CH2-(R)-CH(CH2C(O)CMe3)C(O)-Asp(cyPn)-cis-NH-(2-methyl-cyclohexyl)] displayed an IC50 in experiment [1] (Table IV, assay of example 10) of 0.67 µM. In addition, in the experiment with HSV-2 (setting [2]), the EC50 amounted to 75 µM.
For the molecule `CCCC(CCC)NC(=O)NC(C(=O)CC(CC(=O)C(C)(C)C)C(=O)NC(C(=O)NC(CCC)C(C)(C)C)C1(C(=O)O)CCCC1)C(C)(C)C` [Pr2CHNHC(O) / NH-(R)-CH(Pr)CMe3, Pr2CHNHC(O)-Tbg-CH2-(R)-CH(CH2C(O)CMe3)C(O)-Asp(cyPn)-NH-(R)-CH(Pr)CMe3], the IC50 in experiment [1] (Table IV, assay of example 10) is 0.43 µM. The EC50 in the experiment with HSV-2 (setting [2]) turned out to be 15 µM.
In experiment [1] (Table IV, assay of example 10), `CCCC(C)(C)NC(=O)NC(C(=O)CC(CC(=O)C(C)(C)C)C(=O)NC(C(=O)NCC(C)(C)C)C1(C(=O)O)CCCC1)C(C)(C)C` [Me2PrCNHC(O) / NHCH2CMe3, Me2PrCNHC(O)-Tbg-CH2-(R)-CH(CH2C(O)CMe3)C(O)-Asp(cyPn)-NHCH2CMe3] came in with an IC50 of 0.39 µM. The EC50 in the experiment with HSV-2 (setting [2]) was found to be 58 µM.
Turning to `CCCC(CC)(CCC)NC(=O)NC(C(=O)CC(CC(=O)C(C)(C)C)C(=O)NC(C(=O)NC(CC)C(C)(C)C)C1(C(=O)O)CCCC1)C(C)(C)C` [EtPr2CNHC(O) / NH-(R)-CH(Et)CMe3, EtPr2CNHC(O)-Tbg-CH2-(R)-CH(CH2C(O)CMe3)C(O)-Asp(cyPn)-NH-(R)-CH(Et)CMe3], the IC50 in experiment [1] (Table IV, assay of example 10) turned out to be 0.36 µM. For the same molecule, the EC50 in the experiment on HSV-2 (setting [2]) was determined as 6 µM.
